± gives the standard deviation of the averaged measurements.
Experiments:
Assay in all cases: level (log10 ratio to DMSO vehicle control); higher = higher biomarker level / cell amount than vehicle control
[1] = compound: C[C@@H]1C[C@H]2[C@@H]3CCC4=CC(=O)C=C[C@]4(C)[C@@]3(F)[C@@H](O)C[C@]2(C)[C@@]1(O)C(=O)COP(=O)(O)O [Dexamethasone sodium phosphate] (in DMSO)
Description: (§1)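 BioMAP Diversity Plus panel of 12 human primary cell co-culture systems (3C, 4H, LPS, SAg, BT, BF4T, BE3C, CASM3C, HDF3CGF, KF3CT, MyoF, Mphg). Compounds were added 1 h before stimulation and left for 24 h (MyoF 48 h; BT 72 h for soluble read-outs or 6 d for IgG). Biomarkers were read by ELISA, cytotoxicity by SRB, PBMC viability and proliferation by Alamar Blue. Each well value was divided by the mean of 8 DMSO control wells on the same plate and log10 transformed; duplicate blinded samples were tested at 4 concentrations.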

[2] = compound: NS(=O)(=O)C(F)(F)C(F)(F)C(F)(F)C(F)(F)C(F)(F)C(F)(F)C(F)(F)C(F)(F)F [Perfluorooctanesulfonamide] (in DMSO)
Description: as §1

Perfluoroundecanoic acid = compound: O=C(O)C(F)(F)C(F)(F)C(F)(F)C(F)(F)C(F)(F)C(F)(F)C(F)(F)C(F)(F)C(F)(F)C(F)(F)F [Perfluoroundecanoic acid] (in DMSO); details: 6700 nM
Description: as §1

Perfluorononanoic acid = compound: O=C(O)C(F)(F)C(F)(F)C(F)(F)C(F)(F)C(F)(F)C(F)(F)C(F)(F)C(F)(F)F [Perfluorononanoic acid] (in DMSO)
Description: as §1

[3] = compound: O=C(O)C(F)(OC(F)(F)C(F)(OC(F)(F)C(F)(OC(F)(F)C(F)(F)C(F)(F)F)C(F)(F)F)C(F)(F)F)C(F)(F)F [Perfluoro-(2,5,8-trimethyl-3,6,9-trioxadodecanoic)acid] (in DMSO)
Description: as §1

[4] = compound: O=S(=O)(O)C(F)(F)C(F)(F)OC(F)(F)C(F)(F)F [Perfluoro(2-ethoxyethane)sulfonic acid] (in DMSO)
Description: as §1

[5] = compound: OCCC(F)(F)C(F)(F)C(F)(F)C(F)(F)F [4:2 Fluorotelomer alcohol] (in DMSO)
Description: as §1

| Test System | level (log10) ([1]; 1500 nM) | level (log10) ([1]; 4400 nM) | level (log10) ([1]; 13000 nM) | level (log10) ([1]; 40000 nM) | level (log10) ([2]; 6700 nM) | level (log10) ([2]; 20000 nM) | level (log10) (Perfluoroundecanoic acid) | level (log10) (Perfluorononanoic acid; 6700 nM) | level (log10) (Perfluorononanoic acid; 20000 nM) | level (log10) ([3]; 1100 nM) | level (log10) ([3]; 3300 nM) | level (log10) ([3]; 10000 nM) | level (log10) ([4]; 6700 nM) | level (log10) ([4]; 20000 nM) | level (log10) ([4]; 60000 nM) | level (log10) ([5]; 6700 nM) | level (log10) ([5]; 20000 nM) | level (log10) ([5]; 60000 nM) |
| --- | --- | --- | --- | --- | --- | --- | --- | --- | --- | --- | --- | --- | --- | --- | --- | --- | --- | --- |
| LPS:sPGE2 | -0.028 ± 0.028 | -0.0525 ± 0.015 | -0.121 ± 0.044 | -0.155 ± 0.016 | 0.07 ± 0.011 | 0.0945 ± 0.012 | -0.0665 ± 0.044 | -0.0695 ± 0.00071 | -0.144 ± 0.0064 | 0.0385 ± 0.032 | 0.011 ± 0.031 | -0.012 ± 0.047 | 0 ± 0.028 | -0.0545 ± 0.03 | -0.001 ± 0.011 | -0.008 ± 0.025 | -0.0115 ± 0.044 | -0.0105 ± 0.025 |
| LPS:sTNF-alpha | -0.083 ± 0.047 | -0.0655 ± 0.032 | -0.19 ± 0.038 | -0.262 ± 0.032 | 0.007 ± 0.0042 | -0.0245 ± 0.00071 | -0.0415 ± 0.00071 | -0.0115 ± 0.028 | 0.0115 ± 0.025 | 0.0035 ± 0.022 | -0.001 ± 0.016 | 0.001 ± 0.02 | 0.011 ± 0.0057 | -0.0005 ± 0.0035 | -0.0005 ± 0.0092 | -0.008 ± 0.02 | -0.01 ± 0.0071 | 0.0015 ± 0.0092 |
| SAg:CCL2/MCP-1 | -0.024 ± 0.031 | -0.029 ± 0.013 | -0.089 ± 0.0042 | -0.07 | -0.0125 ± 0.021 | 0.0075 ± 0.015 | -0.0155 ± 0.0035 | -0.0015 ± 0.0035 | 0.0555 ± 0.013 | -0.0025 ± 0.018 | -0.0055 ± 0.0035 | 0.0195 ± 0.025 | 0.0065 ± 0.0078 | 0.0055 ± 0.011 | 0.0145 ± 0.019 | -0.009 ± 0.0014 | 0.006 ± 0.025 | 0.031 ± 0.089 |
| SAg:CD38 | -0.014 ± 0.018 | -0.027 ± 0.021 | -0.037 ± 0.0028 | -0.0215 ± 0.023 | -0.006 ± 0.0071 | -0.089 ± 0.016 | -0.0175 ± 0.022 | 0.0155 ± 0.069 | 0.0205 ± 0.056 | -0.0115 ± 0.0021 | -0.011 ± 0.021 | -0.005 ± 0.014 | -0.0005 ± 0.03 | -0.004 ± 0.023 | -0.0125 ± 0.016 | 0.0085 ± 0.11 | 0.0295 ± 0.1 | 0.0235 ± 0.077 |
| SAg:CD40 | -0.044 ± 0.0085 | -0.072 ± 0.05 | -0.0535 ± 0.03 | -0.074 ± 0.081 | -0.028 ± 0.0042 | -0.1085 ± 0.00071 | -0.013 ± 0.0028 | -0.0285 ± 0.044 | -0.057 ± 0.02 | -0.009 ± 0.0071 | -0.0015 ± 0.0021 | -0.0005 ± 0.019 | 0.0065 ± 0.0035 | 0.024 ± 0.0085 | 0.017 ± 0.0085 | -0.028 ± 0.059 | -0.036 ± 0.037 | -0.006 ± 0.068 |
| SAg:CD62E/E-Selectin | -0.0615 ± 0.0021 | -0.124 ± 0.015 | -0.168 ± 0.059 | -0.168 ± 0.03 | -0.0165 ± 0.00071 | -0.0845 ± 0.015 | 0.034 ± 0.038 | -0.01 ± 0.03 | 0.0315 ± 0.039 | -0.02 ± 0.0014 | -0.031 ± 0.02 | 0.008 ± 0.042 | 0.0015 ± 0.0021 | 0.001 ± 0.0071 | 0.033 ± 0.018 | -0.0125 ± 0.011 | -0.001 ± 0.011 | 0.025 ± 0.016 |
| SAg:CD69 | -0.025 ± 0.02 | -0.054 ± 0.02 | -0.0885 ± 0.03 | -0.0865 ± 0.011 | -0.0205 ± 0.06 | -0.119 ± 0.064 | -0.0285 ± 0.018 | -0.035 | -0.0335 ± 0.015 | -0.0135 ± 0.005 | -0.015 ± 0.0042 | -0.0095 ± 0.023 | 0.0055 ± 0.032 | 0.0065 ± 0.016 | 0.015 ± 0.021 | -0.0265 ± 0.00071 | -0.0115 ± 0.011 | -0.0005 ± 0.0092 |
| SAg:CXCL8/IL-8 | -0.0245 ± 0.039 | -0.0475 ± 0.039 | -0.097 ± 0.075 | -0.137 ± 0.087 | -0.0015 ± 0.005 | -0.0505 ± 0.03 | -0.021 ± 0.0028 | -0.0165 ± 0.029 | 0.0095 ± 0.036 | -0.0095 ± 0.028 | -0.0265 ± 0.037 | 0.0195 ± 0.026 | 0.0225 ± 0.057 | 0.0465 ± 0.016 | 0.0945 ± 0.0035 | -0.017 ± 0.0071 | -0.018 ± 0.016 | 0.018 ± 0.034 |
| SAg:CXCL9/MIG | 0.0095 ± 0.00071 | -0.0065 ± 0.0035 | -0.0125 ± 0.0035 | -0.005 ± 0.0099 | -0.002 ± 0.0042 | -0.0055 ± 0.011 | 0.0005 ± 0.0064 | 0.005 ± 0.017 | -0.004 ± 0.013 | -0.01 ± 0.017 | 0.008 ± 0.017 | -0.0005 ± 0.016 | 0.007 | -0.0025 ± 0.0078 | 0.0035 ± 0.005 | -0.0125 ± 0.0092 | 0.003 ± 0.0057 | 0.0105 ± 0.035 |
| SAg:PBMC Cytotoxicity | -0.013 ± 0.054 | 0.003 ± 0.037 | -0.05 ± 0.024 | -0.0395 ± 0.019 | 0.009 ± 0.034 | 0.0315 ± 0.0064 | 0.006 ± 0.0028 | 0.006 ± 0.018 | 0.015 ± 0.013 | 0.002 ± 0.04 | 0.024 ± 0.027 | -0.0095 ± 0.07 | -0.025 ± 0.038 | 0.0045 ± 0.0092 | 0.0085 ± 0.0021 | -0.021 ± 0.023 | -0.0085 ± 0.0021 | -0.0095 ± 0.005 |
| SAg:Proliferation | -0.001 ± 0.034 | 0.0035 ± 0.0078 | -0.0855 ± 0.005 | -0.023 ± 0.0099 | -0.031 ± 0.042 | -0.0445 ± 0.036 | 0.0125 ± 0.059 | 0.0075 ± 0.056 | 0.0035 ± 0.0092 | 0.009 ± 0.041 | 0.0425 ± 0.0035 | 0.0335 ± 0.016 | -0.0725 ± 0.012 | -0.048 ± 0.025 | -0.038 ± 0.024 | -0.041 ± 0.042 | -0.033 ± 0.0071 | -0.0025 ± 0.032 |
| SAg:SRB | 0.0105 ± 0.0092 | 0.0005 ± 0.005 | 0.005 ± 0.016 | 0.003 ± 0.025 | 0.0065 ± 0.005 | -0.0515 ± 0.0064 | 0.0015 ± 0.0092 | -0.01 ± 0.0085 | -0.002 ± 0.0099 | -0.007 ± 0.0071 | -0.013 ± 0.0042 | -0.0015 ± 0.0021 | -0.0125 ± 0.013 | -0.0125 ± 0.0021 | -0.0185 ± 0.0092 | -0.009 ± 0.0042 | -0.013 ± 0.016 | 0.001 ± 0.0028 |

Reference: the supplement of paper PMC10331698
